# Measured values published in a melting point compilation (Tetko et al.; mined from patent text by program, amines drawn as free bases though some values may be those of a salt).
row,Compound,melting point [°C]
1,O=C(O)CCC(=O)c1cccc(-n2ccnc2)c1,140 to 142
2,CCCCOc1ccc(C(=O)N[C@@H]2CCc3cccc(N4CCN(C)CC4)c3C2)cc1,190 to 191
3,O=S(=O)(NC(=S)NC1CCCCC1)c1cnccc1NC1CCCCCC1,195 to 197
4,S=C(Nc1ccc(Cl)c(Cl)c1)Nc1ncccc1OCc1ccccc1,144 to 146
5,COC(=O)c1cc(NC(=O)C(F)(F)F)c2cc(Cc3ccc(F)cc3)cnc2c1O,191 to 192
6,CC(C)CC(=O)Nc1ccc2oc3c(c2c1)CCCCC3,162 to 163
7,CCCCCCC(=O)CCCCCCCC(COC(C)=O)(COC(C)=O)NC(C)=O,88 to 89
8,COc1cc2c(cc1Br)CC(C)NN=C2c1ccc([N+](=O)[O-])cc1 (stereo unspecified),172 to 174
9,Cc1cc(C)cc(P(=O)(c2cc(C)cc(C)c2)c2ccc3ccccc3c2-c2c(P(=O)(c3cc(C)cc(C)c3)c3cc(C)cc(C)c3)ccc3ccccc23)c1,287 to 290
10,CC1CC(=O)C=C2CCC3C4CCC(=O)C4(C)CCC3C21C (stereo unspecified),154
11,Cc1ccc(S(=O)(=O)C=C(Cl)C#N)cc1,78
12,O=C(OC(c1ccccc1)c1ccccc1)C(C1CC(Cl)=NO1)N1C(=O)c2ccccc2C1=O (stereo unspecified),178 to 179
13,O=[N+]([O-])c1cc(F)ccc1NC1CCCCC1,93
14,Cc1c(-c2ccc(C3=CCN(C(=O)OC(C)(C)C)CC3)cc2)nc2n1CCc1ccccc1C2OC1CCN(C)CC1 (stereo unspecified),171
15,CC(Cl)CNc1cccc(C(N)=O)c1 (stereo unspecified),193 to 194
16,CCOC(=O)C1=C(C)NC(C#N)=C(C(=O)OCC)C1c1ccco1 (stereo unspecified),139 to 141
17,O=C(O)COc1ccc2c(-c3ccc(O)cc3F)noc2c1Cl,216 to 218
18,CCCCCCCC(=O)c1ccc(CCO)cc1,47.4
19,CCCc1nn(C)c2c(=O)[nH]c(-c3cc(NS(C)(=O)=O)ccc3OCC)nc12,205 to 206
20,ICC(c1ccccc1)c1ccccc1,76 to 78
21,COc1ccc(NCCCOc2ccc3ccccc3c2)cc1,110
22,CNC(=O)n1nc(Oc2ccc([N+](=O)[O-])cc2C(F)(F)F)cc1C,142 to 144
23,CC(C)c1ccccc1-c1nc(-c2ccccc2)n[nH]1,165 to 167
24,COc1cccc2cc(C(=O)Oc3ccc(Cl)cn3)c(=O)oc12,203 to 204
25,CCOC(=O)N1Cc2c(n(-c3ccc(F)cc3)c3ccc(F)cc23)C1,143 to 145
26,CC(=O)Nc1cnc2cccc(Oc3cc(-c4ccc(C(F)(F)F)cc4)ncn3)c2n1,237

row,Compound,melting point [°C]
1,CCOC(=O)C(=NOC(C)C)c1csc(N)n1,162 to 164
2,Nc1cccc2ccc(C(=O)O)cc12,221 to 223
3,CNS(=O)(=O)c1ccc(N)c(C(=O)N2CCNCC2)c1,169
4,CCc1nc2c(Cl)ncnc2n1C(C1CC1)C1CC1,99 to 100
5,CCS(=O)(=O)c1cc2c(cc1OC)CCn1c3c(c(-c4cncs4)c1-2)CCCCN(C(C)(C)C)C3=O,258 to 260
6,O=C1c2ccccc2-c2nn(CCO)c3ccc(NCCNCCO)c1c23,209 to 211
7,Cc1ccc(C2CCN(CCCCNC(=O)c3ccc(-c4ccc(C#N)cc4)cc3)CC2)c(O)c1,184
8,OCc1ccc(OCCF)cc1,37.3 to 38
9,CCCCCCCCCCCCCCCC(=O)Nc1cc(C(=O)O)ccc1C,238 to 240
10,CC(=O)N1C(=O)c2cccnc2N(C2CC2)c2nc(Cl)cc(C)c21,204 to 206
11,CCOC(=O)c1cn2c3c(cc(I)cc3c1=O)N(C)C(=O)C2,278 to 283
12,N#CC1=C(Nc2ccc(F)cc2F)CCC1,116 to 119
13,COc1cc2c(Oc3ccc(Cl)cc3F)ncnc2cc1OCc1ccccc1,179 to 180
14,C=CCc1c(O)cc(OC)cc1C(=O)O,120 to 122
15,Cc1nc2c(s1)CN=C(c1ccccc1)c1cc(Cl)ccc1-2,128 to 130
16,O=S(=O)(c1ccc(Cl)cc1)c1ccc(-c2ccccc2)cc1,169
17,Cc1ncc2ccc(-c3ccc(F)cc3)nc2n1,> 200
18,CCCCc1ncc(CC(Cc2ccccc2)C(=O)OC)n1Cc1ccccc1Cl (stereo unspecified),118 to 120
19,CCCCOC(=O)C(=C1SC=CS1)S(=O)(=O)C(C)C,67 to 69
20,O=C(O)CNC(=O)c1ccc(C(=O)NS(=O)(=O)c2ccccc2)cn1,190 to 191
21,Clc1ccc(CSCc2ccc(Cl)cc2)cc1,42 to 44
22,O=C1NCCc2c1c1ccccc1n2Cc1ccccc1,209 to 212
23,O=C(O)c1ccc(-c2ccc(O)c(F)c2)cc1,254 to 256
24,CCCc1c2c(cc3c1OC(O)(C(=O)OCC)CC3=O)CCCC2 (stereo unspecified),126 to 128
25,CCC(C)(C)c1cc(-c2cccc(C=C3SC(N4CCCC4)=NC3=O)c2)ccc1O,282 to 283
26,NC(=O)c1cc(F)c(N[C@H]2CC[C@H](N)CC2)cc1F,209 to 210

row,Compound,melting point [°C]
1,COC(=O)[C@H](CS)NC(=O)[C@@H]1CCC(=S)N1,177 to 178
2,Cc1cccc(C(=O)OC2CCCCC2=O)c1 (stereo unspecified),73 to 74
3,O=C1NC(=O)c2c1c(I)cc1[nH]c3ccc(O)cc3c21,> 350
4,Cc1cnc(C2=NC(C)(C(C)C)C(=O)N2)c(C(=O)c2ccc(C)s2)c1 (stereo unspecified),173 to 175
5,O=C(O)COc1cccc2c1CC(SCc1ccccc1)c1sc(-c3ccc4ccccc4c3)nc1-2 (stereo unspecified),118 to 121
6,O=C(Nc1ccncc1)c1ccc(OC(F)F)c2oc3ccccc3c12,230
7,CC(C)(C)c1cccc2c1C(=O)NS2(=O)=O,185 to 187
8,O=C(O)c1ccc(CNc2nc(-c3cccnc3)nc3ccccc23)cc1,285 to 294
9,Cc1cccc(-c2ccc([N+](=O)[O-])cc2)c1,59 to 60
10,CCOC(=O)CN(c1ccc(Cl)cc1)[C@H]1c2cc(C#N)ccc2OC(C)(C)[C@@H]1O,172
11,CN(C)C1CCCCC1Oc1ccc(Cc2c(-c3ccc(OCCN4CCCC4)cc3)sc3cc(O)ccc23)cc1 (stereo unspecified),95 to 98
12,CC1Nc2ccc(S(=O)(=O)N3CCCCC3)cc2S(=O)(=O)N1 (stereo unspecified),255 to 256
13,CC(C)(CO)NC(=O)c1cccnc1,91 to 93
14,NC1=NCC(COc2cccc(C(F)(F)F)c2)O1 (stereo unspecified),10
15,Cc1cc(C(=S)NCc2cccc([N+](=O)[O-])c2)c(OCC(=O)O)cc1F,137 to 139
16,COCCCOc1ccc(/C=C(\C)C(=O)O)c(Oc2ncc(Cl)cc2Cl)c1,128 to 130
17,CN1CCCC(COc2ccc(/C=c3\[nH]c(=O)/c(=C/c4ccccc4)[nH]c3=O)nc2)C1 (stereo unspecified),326 to 328
18,Fc1ccc(/C=C/c2nc(COc3cccc(CCCn4ccnn4)c3)co2)cc1,105 to 106
19,N#Cc1nn(-c2c(Cl)cc(C(F)(F)F)cc2Cl)c(N)c1C1=CCCCC1,175 to 177
20,CCCCNC(=NC#N)Nc1cccnc1,96 to 97
21,O=C(NN=Cc1ccc2ccccc2n1)c1ccccc1,171
22,CCCCN(CCCC)c1ccc2c(c1)O/C(=C1/Oc3cc(N(CCCC)CCCC)ccc3C1=O)C2=O,216
23,CCCCCCCCCCCCCCCCCC(=O)c1ccc(O)c(C(=O)OC(C)C)c1,72 to 73
24,CC(=O)c1cccc(NC(=S)N(C)N)c1,125 to 127
25,CS(=O)(=O)CCNc1nccc(Oc2ccc(NC(=O)c3cc(F)cc(N4CCCCC4)c3)c3ccccc23)n1,102 to 104
26,C=CCC1Cn2c(ncc(C(=O)O)c2=O)-c2cc(OC)ccc21 (stereo unspecified),128 to 130

row,Compound,melting point [°C]
1,CCN(CC)CCNc1nc2cccnc2n(-c2ccc(OC)cc2)c1=O,167 to 168
2,O=C(C1CCCCO1)N1CCNCC1 (stereo unspecified),53 to 58
3,COC(=O)CS(=O)(=O)C(C)c1ccc(-c2ccccc2)cc1 (stereo unspecified),79 to 80
4,CN(C)CCNc1ccc(O)c2c1C(=O)c1c(Cl)ccc(Cl)c1C2=O,125 to 130
5,COC(=O)COc1ccc(Cl)cc1CC1CNC(=O)CN(S(=O)(=O)c2ccc(Cl)cc2)C1=O (stereo unspecified),138 to 140
6,CCOc1cccc(-c2cc(F)c(NC(=O)c3ccccc3CO)c(F)c2)c1,94.8 to 99.1
7,N#Cc1cc(N)ccc1N1CCN(CCO)CC1,137 to 138
8,CCOC(=O)C(C(=O)Nc1cc(OC)c(OC)c(OC)c1)(c1ccccc1)c1ccccc1,109 to 111
9,CC(=O)N(C(=O)N1CC(c2ccc(Cl)cc2)C(c2ccc(Cl)cc2)=N1)c1ccc(C(F)(F)F)cc1 (stereo unspecified),166 to 168
10,CC(C)c1c(C(=O)c2cc(Cl)cc(Cl)c2)[nH]c(=O)[nH]c1=O,252 to 253
11,CN1Cc2c(I)ncn2-c2ccccc2C1=O,174 to 176
12,CCCOc1nc2cc(Cn3ccnc3)ccc2nc1C,85.5
13,CC(=O)c1cc2c(cc1C=O)C(C)(C)CCC2(C)C,116
14,COc1cc2c(cc1OC)[C@@H]1CN(C)CC[C@@H]1N=C2c1ccc([N+](=O)[O-])cc1 (relative stereo),194 to 195
15,COc1ccc(NC(=O)C(C#N)C(=O)c2cccn2C)cc1 (stereo unspecified),192 to 193
16,CC(C)(C)C(=O)CN1C(=O)C(NC(=O)Nc2cccc(C(=O)O)c2)CN(C(=O)C(C)(C)C)c2ccccc21 (stereo unspecified),231 to 233
17,Cc1ccc(Cn2nc(CCCc3ccc(OC(C)(C)C(=O)O)cc3)[nH]c2=O)cc1C,146 to 150
18,CC(=O)OCCn1c(=O)c(C#N)c(N2CCN(C(=O)c3cccs3)CC2)c2cccnc21,189
19,C=CCNc1nc(NCc2ccccc2)c2scc(C)c2n1,97 to 98
20,CCCCCCCCCCCCCCCCCCNC(=O)OCC(CNS(=O)(=O)CCCCl)NC(=O)OC(C)(C)C (stereo unspecified),112 to 115
21,Cc1cc2oc(S(=O)(=O)N=CN(C)C)cc2cn1,175 to 177
22,COc1c(F)c(N)cc(F)c1F,45 to 47
23,Clc1ccc([C@@]2(Cn3ccnc3)OC[C@H](COc3ccc4c(c3)CCN(Cc3ccc(-c5ccccc5)cc3)C4)O2)c(Cl)c1 (racemic),103 to 105
